Measured values reported in patent US4051259A, “Phenoxyacetic acid amide” (Les Laboratoires Bruneau & Cie, priority 1975, dated 1977).

Tests used:
[1] = toxicity (LD50) by the method of Karber and Behrens; type: in vivo, mice; details: mouse, in vivo; mice, po
Text: (§1) The toxicity (LD50) has been determined in the mice by the method of Karber and Behrens (Arch. Expl. Pathol. Pharmacol., 1931, 162, 48) and the anorexigenic activity (ED50) in the rat by the method of LeDouarec (J. Pharmacol. Paris 1970, 1, 419-22).

rat = experiment: anorexigenic activity (ED50) by the method of LeDouarec; type: in vivo; details: for ED50: rat, po, read-out: ED50 po (anorexia); for anorexigenic activity (in words): comparison of results within the table
Text: as §1

mice = experiment: toxicity (LD50) by the method of Karber and Behrens; type: in vivo; details: for toxicity (in words): comparison of results within the table
Text: as §1

Compound | LD50 [1] | ED50 (rat) | further results
CCNc1ccc(OCC(=O)NC(C)Cc2cccc(C(F)(F)F)c2)cc1 (stereo not drawn) [LB 359] | 1600 mg/kg | 15 mg/kg | –
CNc1ccc(OCC(=O)NC(C)Cc2cccc(C(F)(F)F)c2)cc1 (stereo not drawn) [LB 367] | 800 mg/kg | 12 mg/kg | –
CCCNc1ccc(OCC(=O)NC(C)Cc2cccc(C(F)(F)F)c2)cc1 (stereo not drawn) [LB 368] | > 1600 mg/kg | 20 mg/kg | –
CC(C)CNc1ccc(OCC(=O)NC(C)Cc2cccc(C(F)(F)F)c2)cc1 (stereo not drawn) [LB 369] | > 2000 mg/kg | 25 mg/kg | –
CCCCCNc1ccc(OCC(=O)NC(C)Cc2cccc(C(F)(F)F)c2)cc1 (stereo not drawn) [LB 411, 1-methyl-2-(m-trifluoromethylphenyl)-ethylamide of p-pentylaminophenoxyacetic acid] | 4000 mg/kg | 10 mg/kg | intensity of intoxication symptoms (mice; at doses near the LD50): relatively weak; intoxication symptoms (mice; at doses near the LD50, first hour, then later): hypomotility and hypothermia during the first hour than tremor and convulsions; toxicity (in words) (mice): very low; toxicity (in words) (mice; listed as n-pentyl derivative): low toxicity; doses at which intoxication symptoms appear (mice; doses relative to LD50): only at doses near of the LD50; anorexigenic activity (in words) (rat): particularly high; anorexigenic activity (in words) (rat; listed as n-pentyl derivative): outstanding anorexia-inducing properties
CCCCCCNc1ccc(OCC(=O)NC(C)Cc2cccc(C(F)(F)F)c2)cc1 (stereo not drawn) [LB 446] | > 4000 mg/kg | 45 mg/kg | –
CCCCNc1ccc(OCC(=O)NC(C)Cc2cccc(C(F)(F)F)c2)cc1 (stereo not drawn) [LB 448] | > 2000 mg/kg | 20 mg/kg | –
